Experimental data from EP2271651B1, “ISOTHERMAL PROCESS FOR PHOSPHOROMONOCHLORIDITE SYNTHESIS” (Dow Global Technologies LLC, priority 2008, dated 2009).
Like-named read-outs stand apart in the source and are kept apart here.

How the values were obtained:
[1] = Solubility of the aromatic diol in organic solvent (equilibrium solubility method); format: physicochemical; settings: based on the weight of the solution
Excerpt: The solubility of the aromatic diol in the organic solvent can be measured by using known procedures. For example, the solubility of the aromatic diol in the organic solvent at a specific temperature can be determined by an equilibrium solubility method, which employs a saturated solution of the aromatic diol, obtained by stirring an excess amount of the aromatic diol in the organic solvent at the specific temperature for a sufficient period of time until equilibrium is achieved. Thereafter, the resulting liquid phase saturated solution, the resulting solid phase, or both liquid and solid phases are analyzed by any conventional analytical method to arrive at the solubility of the aromatic diol in the organic solvent.
In this first embodiment, generally, the aromatic diol has a low solubility in the first organic solvent. […] Accordingly, this embodiment generally requires a) a large quantity of the first organic solvent to solubilize essentially all of the aromatic diol, and/or b) preparation and maintenance of the feed solution at an elevated temperature to increase and maintain solubility of the diol in the feed solution. […]

[2] = cited from earlier work; for HCl solubility: total pressure of 760 mm Hg (101 kPa)

Compound: Oc1ccccc1-c1ccccc1O [2,2'-biphenol]
- solubility in toluene ([1]; at 19°C): 2.7 percent by weight
- solubility in toluene ([1]; at 40°C): 7.3 percent by weight

Compound: Clc1ccccc1 [Chlorobenzene]
- HCl solubility ([2]; At 20°C): 0.033 Mol/mol organic solvent

Compound: C1CCOC1 [Tetrahydrofuran]
- hydrogen chloride absorbed/dissolved by one mole of solvent ([2]; at 10°C and a total pressure of 760 mm Hg (101 kPa)): 1.38 mol

Compound: Cc1cccc(C)c1 [m-Xylene]
- HCl solubility ([2]; At 20°C): 0.071 Mol/mol organic solvent

Compound: CCCCCCCCCC [n-Decane]
- HCl solubility ([2]; At 10°C): 0.028 Mol/mol organic solvent

Compound: CCCCCCC [n-Heptane]
- HCl solubility ([2]; At 10°C): 0.02 Mol/mol organic solvent
- HCl solubility ([2]; At 20°C): 0.015 Mol/mol organic solvent

Compound: Cc1ccc(C)cc1 [p-Xylene]
- HCl solubility ([2]; At 10°C): 0.08 Mol/mol organic solvent
- HCl solubility ([2]; At 20°C): 0.064 Mol/mol organic solvent
